Experimental data taken from the kinase profiling compilation of Christmann-Franck et al. (2016).

Key:
Experiment in all cases: radiometric filter-binding kinase assay
AURKA (human) = AURKA (human) (UniProt O14965)
BRSK2 (human) = BRSK2 (human) (UniProt Q8IWQ3)
CDK2 CCNA2 (human) = CDK2 CCNA2 (human) (UniProt P20248+P24941)
CHEK1 (human) = CHEK1 (human) (UniProt O14757)
CHEK2 (human) = CHEK2 (human) (UniProt O96017)
CLK2 (human) = CLK2 (human) (UniProt P49760)
DAPK1 (human) = DAPK1 (human) (UniProt P53355)
EEF2K (human) = EEF2K (human) (UniProt O00418)
EPHB4 (human) = EPHB4 (human) (UniProt P54760)
ERBB4 (human) = ERBB4 (human) (UniProt Q15303)
FLT1 (human) = FLT1 (human) (UniProt P17948)
GCK (human) = GCK (human) (UniProt Q12851)
HIPK1 (human) = HIPK1 (human) (UniProt Q86Z02)
HIPK3 (human) = HIPK3 (human) (UniProt Q9H422)
JAK2 JH1 JH2 (human) = JAK2 JH1 JH2 (human) (UniProt O60674)
MAP3K1 (human) = MAP3K1 (human) (UniProt Q13233)
MAP3K5 (human) = MAP3K5 (human) (UniProt Q99683)
MAPK1 (human) = MAPK1 (human) (UniProt P28482)
MAPK3 (human) = MAPK3 (human) (UniProt P27361)
MARK3 (human) = MARK3 (human) (UniProt P27448)
MARK4 (human) = MARK4 (human) (UniProt Q96L34)
MST4 (human) = MST4 (human) (UniProt Q9P289)
NTRK1 (human) = NTRK1 (human) (UniProt P04629)
NUAK1 (human) = NUAK1 (human) (UniProt O60285)
PAK6 (human) = PAK6 (human) (UniProt Q9NQU5)
PLK1 (human) = PLK1 (human) (UniProt P53350)
PRKCA (human) = PRKCA (human) (UniProt P17252)
PRKCZ (human) = PRKCZ (human) (UniProt Q05513)
RPS6KA1 KD1 KD2 (human) = RPS6KA1 KD1 KD2 (human) (UniProt Q15418)
RPS6KA3 KD1 KD2 (human) = RPS6KA3 KD1 KD2 (human) (UniProt P51812)
RPS6KA5 KD1 KD2 (human) = RPS6KA5 KD1 KD2 (human) (UniProt O75582)
[1] = system: SGK1 (human), O00141 [S422D]
SRC (human) = SRC (human) (UniProt P12931)
STK3 (human) = STK3 (human) (UniProt Q13188)

Chain of CHEK2 (human) (O96017 whole entry, looked up): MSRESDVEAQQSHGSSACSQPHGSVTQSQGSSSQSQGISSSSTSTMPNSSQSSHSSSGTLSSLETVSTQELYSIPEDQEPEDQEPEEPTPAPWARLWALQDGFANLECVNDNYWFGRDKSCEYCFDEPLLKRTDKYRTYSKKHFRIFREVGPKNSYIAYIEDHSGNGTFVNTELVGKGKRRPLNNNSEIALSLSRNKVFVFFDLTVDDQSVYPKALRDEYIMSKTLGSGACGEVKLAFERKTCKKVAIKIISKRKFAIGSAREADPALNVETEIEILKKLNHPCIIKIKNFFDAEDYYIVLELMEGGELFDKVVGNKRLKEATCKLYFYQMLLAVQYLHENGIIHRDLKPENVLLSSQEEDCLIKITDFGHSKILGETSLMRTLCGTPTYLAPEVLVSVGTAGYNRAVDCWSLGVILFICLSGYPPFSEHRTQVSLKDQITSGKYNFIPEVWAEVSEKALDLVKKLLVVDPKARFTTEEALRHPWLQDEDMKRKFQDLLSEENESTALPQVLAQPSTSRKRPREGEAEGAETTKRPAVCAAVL
Chain of NTRK1 (human) (P04629 whole entry, looked up): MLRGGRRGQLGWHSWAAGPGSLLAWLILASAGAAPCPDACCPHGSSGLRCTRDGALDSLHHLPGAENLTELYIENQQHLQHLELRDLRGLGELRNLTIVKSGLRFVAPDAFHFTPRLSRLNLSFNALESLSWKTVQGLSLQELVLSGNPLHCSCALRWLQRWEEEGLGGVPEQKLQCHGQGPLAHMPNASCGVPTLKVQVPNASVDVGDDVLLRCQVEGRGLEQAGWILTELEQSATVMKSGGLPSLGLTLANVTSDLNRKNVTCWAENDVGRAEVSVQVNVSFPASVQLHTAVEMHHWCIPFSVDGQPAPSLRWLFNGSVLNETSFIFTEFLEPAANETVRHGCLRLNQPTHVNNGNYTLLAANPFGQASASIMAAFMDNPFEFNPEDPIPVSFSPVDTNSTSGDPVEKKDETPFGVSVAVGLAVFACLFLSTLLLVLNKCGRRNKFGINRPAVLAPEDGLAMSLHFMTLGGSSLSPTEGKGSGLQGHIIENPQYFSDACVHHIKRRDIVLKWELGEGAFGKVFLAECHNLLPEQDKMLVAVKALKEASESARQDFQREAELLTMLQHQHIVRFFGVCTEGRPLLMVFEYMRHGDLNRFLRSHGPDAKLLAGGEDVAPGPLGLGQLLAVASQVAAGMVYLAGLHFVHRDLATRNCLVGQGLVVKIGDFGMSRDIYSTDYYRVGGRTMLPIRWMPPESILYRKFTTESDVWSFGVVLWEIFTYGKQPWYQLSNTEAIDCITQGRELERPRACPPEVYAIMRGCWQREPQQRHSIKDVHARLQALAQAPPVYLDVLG
Chain of MAPK1 (human) (P28482 whole entry, looked up): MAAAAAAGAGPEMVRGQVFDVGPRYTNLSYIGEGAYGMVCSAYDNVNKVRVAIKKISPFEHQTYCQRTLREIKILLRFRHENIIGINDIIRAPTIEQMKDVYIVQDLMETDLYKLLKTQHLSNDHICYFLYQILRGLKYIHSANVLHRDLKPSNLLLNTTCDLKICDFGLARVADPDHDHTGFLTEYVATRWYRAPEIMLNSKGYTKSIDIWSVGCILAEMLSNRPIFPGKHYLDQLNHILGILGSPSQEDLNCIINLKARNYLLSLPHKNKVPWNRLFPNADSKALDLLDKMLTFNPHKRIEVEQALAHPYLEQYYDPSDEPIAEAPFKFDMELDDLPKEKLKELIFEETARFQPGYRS
Chain of RPS6KA5 KD1 KD2 (human) (O75582 whole entry, looked up): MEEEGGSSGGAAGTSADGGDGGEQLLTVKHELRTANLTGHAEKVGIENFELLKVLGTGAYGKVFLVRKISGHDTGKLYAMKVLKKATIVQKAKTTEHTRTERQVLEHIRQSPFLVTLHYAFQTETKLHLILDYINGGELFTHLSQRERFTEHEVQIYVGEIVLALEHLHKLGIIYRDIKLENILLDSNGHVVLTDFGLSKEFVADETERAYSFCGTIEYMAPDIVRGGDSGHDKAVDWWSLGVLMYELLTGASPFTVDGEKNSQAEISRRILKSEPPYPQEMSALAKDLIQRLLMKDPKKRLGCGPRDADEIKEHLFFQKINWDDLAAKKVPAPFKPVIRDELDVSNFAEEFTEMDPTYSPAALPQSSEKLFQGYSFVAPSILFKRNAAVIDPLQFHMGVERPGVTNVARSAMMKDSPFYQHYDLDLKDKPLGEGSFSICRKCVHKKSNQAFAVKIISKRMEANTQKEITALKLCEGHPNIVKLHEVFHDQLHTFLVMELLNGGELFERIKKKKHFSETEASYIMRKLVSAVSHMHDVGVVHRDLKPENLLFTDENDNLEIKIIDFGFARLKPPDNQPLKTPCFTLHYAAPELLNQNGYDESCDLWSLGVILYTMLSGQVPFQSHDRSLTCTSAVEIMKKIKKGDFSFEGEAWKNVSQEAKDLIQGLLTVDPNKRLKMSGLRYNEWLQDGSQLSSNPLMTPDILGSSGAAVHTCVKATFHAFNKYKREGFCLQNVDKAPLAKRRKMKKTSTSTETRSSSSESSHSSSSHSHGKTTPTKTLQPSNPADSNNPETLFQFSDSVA
Chain of SGK1 (human), O00141 [S422D] (O00141 whole entry S422D, looked up): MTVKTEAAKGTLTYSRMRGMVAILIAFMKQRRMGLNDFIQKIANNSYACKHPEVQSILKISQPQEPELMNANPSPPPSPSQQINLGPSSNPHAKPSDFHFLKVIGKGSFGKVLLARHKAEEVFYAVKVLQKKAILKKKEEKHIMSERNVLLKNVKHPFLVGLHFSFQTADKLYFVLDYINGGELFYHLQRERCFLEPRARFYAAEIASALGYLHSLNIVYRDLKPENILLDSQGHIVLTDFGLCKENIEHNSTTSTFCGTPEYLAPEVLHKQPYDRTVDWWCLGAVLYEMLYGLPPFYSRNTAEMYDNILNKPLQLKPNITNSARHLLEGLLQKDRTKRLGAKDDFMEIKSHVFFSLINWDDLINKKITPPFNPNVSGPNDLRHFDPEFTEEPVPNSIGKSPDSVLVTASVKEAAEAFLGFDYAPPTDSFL
Chain of MARK3 (human) (P27448 whole entry, looked up): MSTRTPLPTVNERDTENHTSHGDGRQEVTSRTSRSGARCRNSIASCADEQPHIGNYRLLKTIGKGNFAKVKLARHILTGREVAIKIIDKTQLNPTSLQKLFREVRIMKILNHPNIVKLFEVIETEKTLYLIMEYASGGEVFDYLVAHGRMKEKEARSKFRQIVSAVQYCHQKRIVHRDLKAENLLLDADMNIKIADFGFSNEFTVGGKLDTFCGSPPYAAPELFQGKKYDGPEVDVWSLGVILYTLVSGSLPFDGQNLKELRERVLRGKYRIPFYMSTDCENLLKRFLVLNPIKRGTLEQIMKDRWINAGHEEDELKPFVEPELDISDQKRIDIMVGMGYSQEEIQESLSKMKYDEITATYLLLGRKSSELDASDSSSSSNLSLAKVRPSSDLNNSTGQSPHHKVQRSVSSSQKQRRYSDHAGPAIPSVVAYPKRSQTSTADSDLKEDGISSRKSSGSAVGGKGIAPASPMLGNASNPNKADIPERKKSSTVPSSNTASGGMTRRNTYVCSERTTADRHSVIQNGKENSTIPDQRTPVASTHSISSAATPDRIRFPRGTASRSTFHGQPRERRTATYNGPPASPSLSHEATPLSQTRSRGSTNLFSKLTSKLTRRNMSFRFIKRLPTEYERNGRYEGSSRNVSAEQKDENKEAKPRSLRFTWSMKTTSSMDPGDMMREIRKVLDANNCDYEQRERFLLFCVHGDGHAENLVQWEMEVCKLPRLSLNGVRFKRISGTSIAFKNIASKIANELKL
Chain of HIPK3 (human) (Q9H422 whole entry, looked up): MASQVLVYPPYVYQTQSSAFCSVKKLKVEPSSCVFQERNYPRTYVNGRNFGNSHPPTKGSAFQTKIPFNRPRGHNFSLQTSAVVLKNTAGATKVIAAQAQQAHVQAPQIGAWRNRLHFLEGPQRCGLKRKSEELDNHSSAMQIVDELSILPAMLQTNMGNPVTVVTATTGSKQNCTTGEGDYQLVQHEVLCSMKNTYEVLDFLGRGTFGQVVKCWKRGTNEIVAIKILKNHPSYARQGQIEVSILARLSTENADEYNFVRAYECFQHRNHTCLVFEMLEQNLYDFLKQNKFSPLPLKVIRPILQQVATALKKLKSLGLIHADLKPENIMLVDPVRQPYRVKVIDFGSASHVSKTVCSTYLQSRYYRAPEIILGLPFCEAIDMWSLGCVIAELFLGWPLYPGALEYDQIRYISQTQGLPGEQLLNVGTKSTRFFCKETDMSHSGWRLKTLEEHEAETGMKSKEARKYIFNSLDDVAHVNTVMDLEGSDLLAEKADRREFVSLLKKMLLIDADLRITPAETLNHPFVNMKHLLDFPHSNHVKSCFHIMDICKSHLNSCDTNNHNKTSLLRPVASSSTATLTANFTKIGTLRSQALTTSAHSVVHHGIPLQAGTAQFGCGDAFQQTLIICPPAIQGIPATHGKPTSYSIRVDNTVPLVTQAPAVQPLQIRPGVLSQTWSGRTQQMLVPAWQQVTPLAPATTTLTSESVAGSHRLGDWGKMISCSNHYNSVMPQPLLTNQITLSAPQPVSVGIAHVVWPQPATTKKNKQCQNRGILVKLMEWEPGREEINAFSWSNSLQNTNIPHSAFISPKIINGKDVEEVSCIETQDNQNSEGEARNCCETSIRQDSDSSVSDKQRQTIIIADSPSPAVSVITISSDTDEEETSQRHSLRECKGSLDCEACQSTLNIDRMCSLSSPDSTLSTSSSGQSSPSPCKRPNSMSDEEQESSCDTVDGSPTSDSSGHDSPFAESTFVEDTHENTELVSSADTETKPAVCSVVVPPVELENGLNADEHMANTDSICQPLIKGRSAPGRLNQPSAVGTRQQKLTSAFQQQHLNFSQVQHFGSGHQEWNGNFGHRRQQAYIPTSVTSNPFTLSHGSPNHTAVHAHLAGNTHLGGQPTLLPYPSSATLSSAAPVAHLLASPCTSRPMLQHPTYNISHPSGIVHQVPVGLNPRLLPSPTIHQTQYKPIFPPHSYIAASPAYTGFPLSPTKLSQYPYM

With `O=C(NOCC(O)CO)c1ccc(F)c(F)c1Nc1ccc(I)cc1Cl` (stereo unspecified) the residual activity (AURKA (human); compound 1.0 µM) was 103%, the residual activity (AURKA (human); compound 10.0 µM) was 104% and the residual activity (BRSK2 (human); compound 1.0 µM) was 108%. For the same compound, the residual activity (BRSK2 (human); compound 10.0 µM) was 105%, the residual activity (CDK2 CCNA2 (human); compound 1.0 µM) was 95% and the residual activity (CDK2 CCNA2 (human); compound 10.0 µM) was 97%. It also gave a residual activity (CHEK1 (human); compound 1.0 µM) of 116%, a residual activity (CHEK1 (human); compound 10.0 µM) of 119% and a residual activity (CHEK2 (human); compound 1.0 µM) of 104%. It also gave a residual activity (CHEK2 (human); compound 10.0 µM) of 93%, a residual activity (CLK2 (human); compound 1.0 µM) of 94% and a residual activity (CLK2 (human); compound 10.0 µM) of 91%. The residual activity (DAPK1 (human); compound 1.0 µM) was 97%, the residual activity (DAPK1 (human); compound 10.0 µM) was 98% and the residual activity (EEF2K (human); compound 1.0 µM) was 84%. The residual activity (EEF2K (human); compound 10.0 µM) was 92%, the residual activity (EPHB4 (human); compound 1.0 µM) was 98% and the residual activity (EPHB4 (human); compound 10.0 µM) was 86%. The residual activity (ERBB4 (human); compound 1.0 µM) was 86%, the residual activity (ERBB4 (human); compound 10.0 µM) was 82% and the residual activity (FLT1 (human); compound 1.0 µM) was 98%. It also gave a residual activity (FLT1 (human); compound 10.0 µM) of 42%, a residual activity (GCK (human); compound 1.0 µM) of 79% and a residual activity (GCK (human); compound 10.0 µM) of 91%. For the same compound, the residual activity (HIPK1 (human); compound 1.0 µM) was 96%, the residual activity (HIPK1 (human); compound 10.0 µM) was 85% and the residual activity (HIPK3 (human); compound 1.0 µM) was 90%. It also gave a residual activity (HIPK3 (human); compound 10.0 µM) of 101%, a residual activity (JAK2 JH1 JH2 (human); compound 1.0 µM) of 5% and a residual activity (JAK2 JH1 JH2 (human); compound 10.0 µM) of 8%. It also gave a residual activity (MAP3K1 (human); compound 1.0 µM) of 88%, a residual activity (MAP3K1 (human); compound 10.0 µM) of 93% and a residual activity (MAP3K5 (human); compound 1.0 µM) of 102%. The residual activity (MAP3K5 (human); compound 10.0 µM) was 112%, the residual activity (MAPK1 (human); compound 1.0 µM) was 83% and the residual activity (MAPK1 (human); compound 10.0 µM) was 79%. The residual activity (MAPK3 (human); compound 1.0 µM) was 100%, the residual activity (MAPK3 (human); compound 10.0 µM) was 101% and the residual activity (MARK3 (human); compound 1.0 µM) was 73%. For the same compound, the residual activity (MARK3 (human); compound 10.0 µM) was 88%, the residual activity (MARK4 (human); compound 1.0 µM) was 119% and the residual activity (MARK4 (human); compound 10.0 µM) was 108%. For the same compound, the residual activity (MST4 (human); compound 1.0 µM) was 107%, the residual activity (MST4 (human); compound 10.0 µM) was 94% and the residual activity (NTRK1 (human); compound 1.0 µM) was 79%. For the same compound, the residual activity (NTRK1 (human); compound 10.0 µM) was 78%, the residual activity (NUAK1 (human); compound 1.0 µM) was 108% and the residual activity (NUAK1 (human); compound 10.0 µM) was 95%. The residual activity (PAK6 (human); compound 10.0 µM) was 103%, the residual activity (PLK1 (human); compound 1.0 µM) was 97% and the residual activity (PLK1 (human); compound 10.0 µM) was 93%. It also gave a residual activity (PRKCA (human); compound 1.0 µM) of 93%, a residual activity (PRKCA (human); compound 10.0 µM) of 86% and a residual activity (PRKCZ (human); compound 1.0 µM) of 89%. It also gave a residual activity (PRKCZ (human); compound 10.0 µM) of 91%, a residual activity (RPS6KA1 KD1 KD2 (human); compound 1.0 µM) of 122% and a residual activity (RPS6KA1 KD1 KD2 (human); compound 10.0 µM) of 98%. The residual activity (RPS6KA3 KD1 KD2 (human); compound 1.0 µM) was 98%, the residual activity (RPS6KA3 KD1 KD2 (human); compound 10.0 µM) was 89% and the residual activity (RPS6KA5 KD1 KD2 (human); compound 1.0 µM) was 98%. It also gave a residual activity (RPS6KA5 KD1 KD2 (human); compound 10.0 µM) of 96%, a residual activity ([1]; compound 1.0 µM) of 71% and a residual activity ([1]; compound 10.0 µM) of 111%. The residual activity (SRC (human); compound 1.0 µM) was 124%, the residual activity (SRC (human); compound 10.0 µM) was 72% and the residual activity (STK3 (human); compound 1.0 µM) was 71%. For the same compound, the residual activity (STK3 (human); compound 10.0 µM) was 75%.

With `CN1CCN(CCOc2cc(OC3CCOCC3)c3c(Nc4c(Cl)ccc5c4OCO5)ncnc3c2)CC1` the residual activity (AURKA (human); compound 0.1 µM) was 112%, the residual activity (BRSK2 (human); compound 0.1 µM) was 96% and the residual activity (CDK2 CCNA2 (human); compound 0.1 µM) was 96%. The residual activity (CHEK1 (human); compound 0.1 µM) was 106%, the residual activity (CHEK2 (human); compound 0.1 µM) was 112% and the residual activity (CLK2 (human); compound 0.1 µM) was 111%. The residual activity (DAPK1 (human); compound 0.1 µM) was 82%, the residual activity (EEF2K (human); compound 0.1 µM) was 65% and the residual activity (EPHB4 (human); compound 0.1 µM) was 76%. It also gave a residual activity (ERBB4 (human); compound 0.1 µM) of 67%, a residual activity (FLT1 (human); compound 0.1 µM) of 116% and a residual activity (HIPK3 (human); compound 0.1 µM) of 101%. For the same compound, the residual activity (JAK2 JH1 JH2 (human); compound 0.1 µM) was 102%, the residual activity (MAP3K1 (human); compound 0.1 µM) was 84% and the residual activity (MAP3K5 (human); compound 0.1 µM) was 100%. For the same compound, the residual activity (MAPK1 (human); compound 0.1 µM) was 100%, the residual activity (MAPK3 (human); compound 0.1 µM) was 93% and the residual activity (MARK3 (human); compound 0.1 µM) was 99%. It also gave a residual activity (MARK4 (human); compound 0.1 µM) of 95%, a residual activity (MST4 (human); compound 0.1 µM) of 104% and a residual activity (NTRK1 (human); compound 0.1 µM) of 93%. The residual activity (NUAK1 (human); compound 0.1 µM) was 95%, the residual activity (PAK6 (human); compound 0.1 µM) was 90% and the residual activity (PLK1 (human); compound 0.1 µM) was 96%. For the same compound, the residual activity (PRKCA (human); compound 0.1 µM) was 100%, the residual activity (PRKCZ (human); compound 0.1 µM) was 101% and the residual activity (RPS6KA5 KD1 KD2 (human); compound 0.1 µM) was 103%. For the same compound, the residual activity ([1]; compound 0.1 µM) was 112% and the residual activity (STK3 (human); compound 0.1 µM) was 102%.
